Test results taken from publication PMC7614683, “A small molecule PI3Kα activator for cardioprotection and neuroregeneration” (Nature, 2023).
Like-named read-outs stand apart in the source and are kept apart here.

Key:
Assay in all cases: SelectScreen Z-LYTE kinase activity assay (SI Table 6)
Type in all cases: biochemical
[1] = biological target: protein kinases of the Z-LYTE panel (Homo sapiens, UniProt O96013)
In short: (§1)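 A counterscreen of 133 protein and 7 lipid kinases was run with one compound concentration, 1 μM 1938, in SelectScreen Adapta, Lantha or Z-LYTE assays.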

[2] = biological target: protein kinases of the Z-LYTE panel (Homo sapiens, UniProt P00519)
In short: as §1

[3] = biological target: protein kinases of the Z-LYTE panel (Homo sapiens, UniProt P00533, L858R/T790M)
In short: as §1

[4] = biological target: protein kinases of the Z-LYTE panel (Homo sapiens, UniProt P06213)
In short: as §1

[5] = biological target: protein kinases of the Z-LYTE panel (Homo sapiens, UniProt P07332)
In short: as §1

[6] = biological target: protein kinases of the Z-LYTE panel (Homo sapiens, UniProt P07949, V804L)
In short: as §1

[7] = biological target: protein kinases of the Z-LYTE panel (Homo sapiens, UniProt P08922)
In short: as §1

[8] = biological target: T1, protein kinases of the Z-LYTE panel (Homo sapiens, UniProt P36896)
T1 sequence (P36896 24-505): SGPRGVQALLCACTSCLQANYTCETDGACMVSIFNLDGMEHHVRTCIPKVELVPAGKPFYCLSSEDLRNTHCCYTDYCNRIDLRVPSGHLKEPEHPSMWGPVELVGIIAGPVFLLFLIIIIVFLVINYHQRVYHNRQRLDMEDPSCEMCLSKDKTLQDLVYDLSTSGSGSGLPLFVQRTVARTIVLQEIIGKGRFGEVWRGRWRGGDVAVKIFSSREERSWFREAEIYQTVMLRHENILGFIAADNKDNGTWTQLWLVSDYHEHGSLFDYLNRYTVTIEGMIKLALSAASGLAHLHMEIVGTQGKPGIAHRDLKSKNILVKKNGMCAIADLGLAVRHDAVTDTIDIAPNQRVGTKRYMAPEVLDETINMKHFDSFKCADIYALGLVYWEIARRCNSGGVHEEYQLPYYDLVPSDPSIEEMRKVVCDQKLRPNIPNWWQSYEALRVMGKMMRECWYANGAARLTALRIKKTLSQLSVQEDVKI
In short: as §1

[9] = biological target: protein kinases of the Z-LYTE panel (Homo sapiens, UniProt P49137)
In short: as §1

[10] = biological target: protein kinases of the Z-LYTE panel (Homo sapiens, UniProt P54756)
In short: as §1

[11] = biological target: protein kinases of the Z-LYTE panel (Homo sapiens, UniProt Q06187)
In short: as §1

[12] = biological target: protein kinases of the Z-LYTE panel (Homo sapiens, UniProt Q15303)
In short: as §1

[13] = biological target: protein kinases of the Z-LYTE panel (Homo sapiens, UniProt Q16620)
In short: as §1

[14] = biological target: protein kinases of the Z-LYTE panel (Homo sapiens, UniProt Q96GD4)
In short: as §1

Sequence of protein kinases of the Z-LYTE panel (Homo sapiens, UniProt P00533, L858R/T790M) (P00533 25-1210 T790M/L858R): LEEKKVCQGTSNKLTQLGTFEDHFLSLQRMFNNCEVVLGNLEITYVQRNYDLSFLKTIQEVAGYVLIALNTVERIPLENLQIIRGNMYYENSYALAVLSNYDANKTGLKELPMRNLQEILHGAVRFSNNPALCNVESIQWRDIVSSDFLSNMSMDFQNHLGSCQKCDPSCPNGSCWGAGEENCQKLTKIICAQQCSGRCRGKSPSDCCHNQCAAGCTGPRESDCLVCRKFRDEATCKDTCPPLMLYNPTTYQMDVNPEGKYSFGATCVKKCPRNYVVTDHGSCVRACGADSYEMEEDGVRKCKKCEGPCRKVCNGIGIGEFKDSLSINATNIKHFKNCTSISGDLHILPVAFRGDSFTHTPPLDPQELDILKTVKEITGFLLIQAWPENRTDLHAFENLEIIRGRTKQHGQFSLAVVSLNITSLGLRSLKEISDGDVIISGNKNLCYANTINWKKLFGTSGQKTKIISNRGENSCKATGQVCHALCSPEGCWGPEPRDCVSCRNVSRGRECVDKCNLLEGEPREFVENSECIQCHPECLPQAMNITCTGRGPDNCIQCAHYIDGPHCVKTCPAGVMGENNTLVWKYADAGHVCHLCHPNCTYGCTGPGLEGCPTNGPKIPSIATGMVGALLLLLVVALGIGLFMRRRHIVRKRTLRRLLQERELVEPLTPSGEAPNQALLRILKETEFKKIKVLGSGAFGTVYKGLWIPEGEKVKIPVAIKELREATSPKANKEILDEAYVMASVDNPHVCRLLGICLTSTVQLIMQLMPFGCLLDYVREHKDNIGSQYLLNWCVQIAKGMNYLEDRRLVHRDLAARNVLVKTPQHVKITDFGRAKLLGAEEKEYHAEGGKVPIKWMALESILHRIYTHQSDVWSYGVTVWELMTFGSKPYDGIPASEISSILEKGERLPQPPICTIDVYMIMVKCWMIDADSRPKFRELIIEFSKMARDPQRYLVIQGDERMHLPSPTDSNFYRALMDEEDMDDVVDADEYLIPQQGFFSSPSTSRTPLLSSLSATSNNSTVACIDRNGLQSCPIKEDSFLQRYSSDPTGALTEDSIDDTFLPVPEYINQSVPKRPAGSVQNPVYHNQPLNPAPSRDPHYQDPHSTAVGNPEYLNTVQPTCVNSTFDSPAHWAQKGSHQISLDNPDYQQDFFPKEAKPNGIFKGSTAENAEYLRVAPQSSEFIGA
Sequence of protein kinases of the Z-LYTE panel (Homo sapiens, UniProt O96013) (O96013 whole entry): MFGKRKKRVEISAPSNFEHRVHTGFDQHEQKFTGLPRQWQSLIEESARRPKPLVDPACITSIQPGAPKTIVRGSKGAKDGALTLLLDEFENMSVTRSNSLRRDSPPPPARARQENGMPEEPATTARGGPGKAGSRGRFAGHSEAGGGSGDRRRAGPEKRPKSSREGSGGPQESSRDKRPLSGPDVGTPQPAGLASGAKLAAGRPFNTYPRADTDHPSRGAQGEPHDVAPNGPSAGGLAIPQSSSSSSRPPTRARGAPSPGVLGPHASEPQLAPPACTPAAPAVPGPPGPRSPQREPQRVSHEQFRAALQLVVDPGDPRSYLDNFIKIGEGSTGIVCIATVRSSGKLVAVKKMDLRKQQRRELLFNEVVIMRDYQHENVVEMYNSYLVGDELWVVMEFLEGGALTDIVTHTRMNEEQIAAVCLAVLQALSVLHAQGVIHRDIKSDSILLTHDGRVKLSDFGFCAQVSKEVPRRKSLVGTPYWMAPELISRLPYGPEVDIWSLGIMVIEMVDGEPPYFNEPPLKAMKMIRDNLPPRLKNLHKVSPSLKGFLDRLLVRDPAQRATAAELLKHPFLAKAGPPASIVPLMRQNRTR
Sequence of protein kinases of the Z-LYTE panel (Homo sapiens, UniProt P49137) (P49137 whole entry): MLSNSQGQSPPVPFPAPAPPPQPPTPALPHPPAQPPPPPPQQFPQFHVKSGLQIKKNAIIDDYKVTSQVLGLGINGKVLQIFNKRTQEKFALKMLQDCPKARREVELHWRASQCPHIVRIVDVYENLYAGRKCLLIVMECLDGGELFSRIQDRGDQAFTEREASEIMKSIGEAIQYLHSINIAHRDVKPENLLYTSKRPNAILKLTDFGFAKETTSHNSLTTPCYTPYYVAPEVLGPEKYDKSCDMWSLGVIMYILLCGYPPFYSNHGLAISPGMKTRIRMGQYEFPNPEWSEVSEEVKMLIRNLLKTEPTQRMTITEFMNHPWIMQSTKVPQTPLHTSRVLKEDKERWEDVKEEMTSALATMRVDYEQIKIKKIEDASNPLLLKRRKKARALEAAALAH
Sequence of protein kinases of the Z-LYTE panel (Homo sapiens, UniProt Q96GD4) (Q96GD4 whole entry): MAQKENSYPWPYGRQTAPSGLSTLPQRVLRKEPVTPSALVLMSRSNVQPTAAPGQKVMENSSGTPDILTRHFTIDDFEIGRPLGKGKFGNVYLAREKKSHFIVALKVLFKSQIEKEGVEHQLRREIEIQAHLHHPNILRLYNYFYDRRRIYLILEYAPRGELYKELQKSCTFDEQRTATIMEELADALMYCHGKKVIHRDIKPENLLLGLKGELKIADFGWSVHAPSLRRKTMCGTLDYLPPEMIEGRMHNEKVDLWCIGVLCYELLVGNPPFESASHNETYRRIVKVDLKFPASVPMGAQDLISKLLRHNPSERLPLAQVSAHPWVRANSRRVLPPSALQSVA
Sequence of protein kinases of the Z-LYTE panel (Homo sapiens, UniProt P00519) (P00519 whole entry): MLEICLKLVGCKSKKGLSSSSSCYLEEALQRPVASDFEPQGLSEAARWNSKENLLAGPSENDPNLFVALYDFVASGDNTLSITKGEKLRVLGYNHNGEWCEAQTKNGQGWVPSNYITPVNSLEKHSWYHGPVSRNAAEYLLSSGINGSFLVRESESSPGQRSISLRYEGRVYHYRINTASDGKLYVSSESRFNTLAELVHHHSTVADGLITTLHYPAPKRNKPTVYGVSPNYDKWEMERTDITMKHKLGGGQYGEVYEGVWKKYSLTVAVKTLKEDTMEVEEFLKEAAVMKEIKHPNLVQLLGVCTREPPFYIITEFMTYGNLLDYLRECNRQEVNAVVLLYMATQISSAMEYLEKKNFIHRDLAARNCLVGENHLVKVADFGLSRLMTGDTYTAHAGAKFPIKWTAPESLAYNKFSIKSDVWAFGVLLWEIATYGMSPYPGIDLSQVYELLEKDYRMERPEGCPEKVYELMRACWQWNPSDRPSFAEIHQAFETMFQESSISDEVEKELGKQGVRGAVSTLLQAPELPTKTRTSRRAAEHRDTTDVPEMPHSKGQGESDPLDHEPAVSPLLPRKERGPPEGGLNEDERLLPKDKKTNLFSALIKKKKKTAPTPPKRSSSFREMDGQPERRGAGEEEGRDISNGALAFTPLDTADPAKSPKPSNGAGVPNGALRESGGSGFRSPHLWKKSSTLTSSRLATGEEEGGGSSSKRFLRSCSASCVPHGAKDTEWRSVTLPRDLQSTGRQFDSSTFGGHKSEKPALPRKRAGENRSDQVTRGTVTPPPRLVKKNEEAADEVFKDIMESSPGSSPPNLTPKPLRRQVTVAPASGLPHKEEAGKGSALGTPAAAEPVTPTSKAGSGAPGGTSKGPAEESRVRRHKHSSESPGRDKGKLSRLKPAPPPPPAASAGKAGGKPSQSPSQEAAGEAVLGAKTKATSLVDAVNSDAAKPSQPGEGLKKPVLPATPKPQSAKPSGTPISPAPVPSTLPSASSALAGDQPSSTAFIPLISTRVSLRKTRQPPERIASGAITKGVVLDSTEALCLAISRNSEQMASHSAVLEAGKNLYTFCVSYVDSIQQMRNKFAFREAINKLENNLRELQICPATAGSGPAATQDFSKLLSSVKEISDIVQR
Sequence of protein kinases of the Z-LYTE panel (Homo sapiens, UniProt Q06187) (Q06187 whole entry): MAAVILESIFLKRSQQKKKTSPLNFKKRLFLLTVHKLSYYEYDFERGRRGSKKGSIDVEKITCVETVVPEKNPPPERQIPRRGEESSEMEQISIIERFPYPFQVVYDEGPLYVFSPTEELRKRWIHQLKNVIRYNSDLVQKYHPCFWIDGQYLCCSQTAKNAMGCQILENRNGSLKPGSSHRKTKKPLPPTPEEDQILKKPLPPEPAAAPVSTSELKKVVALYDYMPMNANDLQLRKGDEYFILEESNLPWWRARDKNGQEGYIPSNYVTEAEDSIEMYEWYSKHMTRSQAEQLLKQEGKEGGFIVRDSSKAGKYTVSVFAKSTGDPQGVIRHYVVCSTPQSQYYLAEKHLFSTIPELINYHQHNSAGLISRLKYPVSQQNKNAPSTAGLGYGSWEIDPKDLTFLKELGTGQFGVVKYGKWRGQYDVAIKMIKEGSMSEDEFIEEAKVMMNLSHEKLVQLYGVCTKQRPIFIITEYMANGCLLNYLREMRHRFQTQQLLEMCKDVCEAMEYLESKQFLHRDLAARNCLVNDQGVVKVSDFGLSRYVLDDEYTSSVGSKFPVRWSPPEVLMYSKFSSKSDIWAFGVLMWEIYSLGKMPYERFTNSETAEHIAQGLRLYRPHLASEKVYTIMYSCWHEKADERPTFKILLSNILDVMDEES

Structure (SMILES): CCN1CCN(c2ccc(Nc3cc(Nc4cccc5c4N(C(C)=O)CC5)ccn3)cc2)CC1 [Compound 1938]
- inhibition at 1 µM ([1]; read-out: % Inhibition Point 1): -3.77%
- inhibition at 1 µM ([1]; read-out: % Inhibition Point 2): -2.13%
- inhibition at 1 µM ([1]; read-out: % Inhibition mean): -3%
- inhibition at 1 µM ([2]; read-out: % Inhibition Point 1): 16%
- inhibition at 1 µM ([2]; read-out: % Inhibition Point 2): 17%
- inhibition at 1 µM ([2]; read-out: % Inhibition mean): 16%
- inhibition at 1 µM ([3]; read-out: % Inhibition Point 1): 12%
- inhibition at 1 µM ([3]; read-out: % Inhibition Point 2): 12%
- inhibition at 1 µM ([3]; read-out: % Inhibition mean): 12%
- inhibition at 1 µM ([4]; read-out: % Inhibition Point 1): 6.51%
- inhibition at 1 µM ([4]; read-out: % Inhibition Point 2): 5%
- inhibition at 1 µM ([4]; read-out: % Inhibition mean): 5.64%
- inhibition at 1 µM ([5]; read-out: % Inhibition Point 1): 7%
- inhibition at 1 µM ([5]; read-out: % Inhibition Point 2): 8%
- inhibition at 1 µM ([5]; read-out: % Inhibition mean): 7.57%
- inhibition at 1 µM ([6]; read-out: % Inhibition Point 1): 11%
- inhibition at 1 µM ([6]; read-out: % Inhibition Point 2): 11%
- inhibition at 1 µM ([6]; read-out: % Inhibition mean): 11%
- inhibition at 1 µM ([7]; read-out: % Inhibition Point 1): 19%
- inhibition at 1 µM ([7]; read-out: % Inhibition Point 2): 22%
- inhibition at 1 µM ([7]; read-out: % Inhibition mean): 21%
- inhibition at 1 µM ([8]; read-out: % Inhibition Point 1): -27%
- inhibition at 1 µM ([8]; read-out: % Inhibition Point 2): -3%
- inhibition at 1 µM ([8]; read-out: % Inhibition mean): -15%
- inhibition at 1 µM ([9]; read-out: % Inhibition Point 1): -0.0637%
- inhibition at 1 µM ([9]; read-out: % Inhibition Point 2): -0.692%
- inhibition at 1 µM ([9]; read-out: % Inhibition mean): -0.378%
- inhibition at 1 µM ([10]; read-out: % Inhibition Point 1): 4.24%
- inhibition at 1 µM ([10]; read-out: % Inhibition Point 2): 1.52%
- inhibition at 1 µM ([10]; read-out: % Inhibition mean): 3%
- inhibition at 1 µM ([11]; read-out: % Inhibition Point 1): 9%
- inhibition at 1 µM ([11]; read-out: % Inhibition Point 2): 8%
- inhibition at 1 µM ([11]; read-out: % Inhibition mean): 9%
- inhibition at 1 µM ([12]; read-out: % Inhibition Point 1): 9%
- inhibition at 1 µM ([12]; read-out: % Inhibition Point 2): 9.48%
- inhibition at 1 µM ([12]; read-out: % Inhibition mean): 9%
- inhibition at 1 µM ([13]; read-out: % Inhibition Point 1): 7.5%
- inhibition at 1 µM ([13]; read-out: % Inhibition Point 2): 6%
- inhibition at 1 µM ([13]; read-out: % Inhibition mean): 6.66%
- inhibition at 1 µM ([14]; read-out: % Inhibition Point 1): 30%
- inhibition at 1 µM ([14]; read-out: % Inhibition Point 2): 29%
- inhibition at 1 µM ([14]; read-out: % Inhibition mean): 30%
